Experiment: in vitro
Conditions: human, hela cells, % viability

Row | Compound | viability at 28.5 h, 10 µM [%] | viability at 28.5 h, 10 µM (bulk resorufin, single well) [%]
1 | CCCOC(=O)c1c(NC(=O)C2C3C=CC(C3)C2C(=O)O)sc2c1CCC(C)C2 (stereo not drawn) [CBK265473] | 87.5 | –
2 | Cc1cc(NS(=O)(=O)c2ccc(NC(=O)/C=C/c3ccc(C)o3)cc2)nc(C)n1 [CBK265474] | 96.5 | –
3 | O=C(NCCCn1ccnc1)c1cc(-c2cccc(Br)c2)nc2ccccc12 [CBK265476] | 91.4 | –
4 | CC(Oc1cccc(Cl)c1)C(=O)NCc1ccc(S(N)(=O)=O)cc1 (stereo not drawn) [CBK265477] | 97 | –
5 | COc1ccc(N2CCN(c3nc(NCCO)nc(OC)n3)CC2)cc1 [CBK265478] | 103 | –
6 | CC(Nc1cc(N2CCN(S(=O)(=O)N(C)C)CC2)ccc1[N+](=O)[O-])C12CC3CC(CC(C3)C1)C2 (stereo not drawn) [CBK265479] | 115 | –
7 | O=C(O)C1CC=CCC1C(=O)NCc1ccncc1 (stereo not drawn) [CBK265481] | 89.2 | –
8 | CCOC(=O)Cn1nc(-c2nonc2N)nc1-c1nonc1N [CBK265482] | 88.5 | –
9 | COc1ccc(/C=C/C(=O)NCc2ccc(S(N)(=O)=O)cc2)cc1OC [CBK265483] | 91 | –
10 | O=C1NC(=O)N(c2cccc([N+](=O)[O-])c2)C(=O)/C1=C\c1ccccc1OCc1ccc(C(=O)O)cc1 [CBK265484] | – | 106
11 | Cc1ccc(C)c(NC(CC(=O)c2ccccc2)C(=O)O)c1 (stereo not drawn) [CBK265485] | 102 | –
12 | COc1ccc(CCNC(=O)c2cc(-c3ccc(C)o3)nc3ccccc23)cc1OC [CBK265486] | 117 | –
13 | CC(Oc1ccc(Cl)cc1Cl)C(=O)NCCc1cccc(Cl)c1 (stereo not drawn) [CBK265489] | 84.2 | –
14 | O=C(/C=C/c1c(Cl)cccc1Cl)Nc1ccc(S(=O)(=O)Nc2ncccn2)cc1 [CBK265490] | 98.8 | –
15 | Cc1ccc(C)c(C(=O)C2=C(O)C(=O)N(CCCN3CCOCC3)C2c2ccncc2)c1 (stereo not drawn) [CBK265492] | 103 | –
16 | O=C(CSc1ccccc1[N+](=O)[O-])Oc1ccccc1 [CBK265501] | 106 | –
17 | O=S(=O)(c1ccc(-c2csc(-c3ccccc3)n2)cc1)N1CCCCCC1 [CBK265504] | 84.9 | –
18 | Cc1nc2ccccc2c2c1C(=O)N(c1cccc(C(=O)OCC(=O)c3ccccc3Cl)c1)C2=O [CBK265505] | 98.5 | –
19 | CC(Oc1ccc(F)cc1)C(=O)NCCN1CCOCC1 (stereo not drawn) [CBK265508] | 99.4 | –
20 | COc1ccc(-c2cc(C(=O)OCC(=O)c3cccc4ccccc34)c3ccccc3n2)cc1 [CBK265513] | 96.7 | –

Row | Compound | viability at 28.5 h, 10 µM [%] | viability at 28.5 h, 10 µM (bulk resorufin, single well) [%]
21 | COc1ccc(N2C(=O)c3ccc(C(=O)OCC(=O)c4ccccc4Cl)cc3C2=O)c([N+](=O)[O-])c1 [CBK265514] | 83.7 | –
22 | Cc1ccc(C(=O)C(OC(=O)c2cc(O)nc3ccccc23)c2ccccc2)cc1C (stereo not drawn) [CBK265515] | 90.9 | –
23 | O=C(CCCc1ccccc1)Nc1ccccc1C(=O)O [CBK265516] | 97.4 | –
24 | O=C(NCCc1ccccc1)c1c(NC(=O)C2COc3ccccc3O2)sc2c1CCCC2 (stereo not drawn) [CBK265522] | 89.8 | –
25 | Cc1c(NC(=O)CCCC(=O)O)cccc1C(=O)O [CBK265525] | 95 | –
26 | CCCCOC(=O)c1ccc(N2C(=O)CC(N3CCN(c4ccc(F)cc4)CC3)C2=O)cc1 (stereo not drawn) [CBK265527] | 94.6 | –
27 | c1ccc(-n2ncc3c(NCc4cccnc4)ncnc32)cc1 [CBK265528] | 85.2 | –
28 | CCCC12CN3CC(CCC)(CN(C1)C3C(O)C(O)C(O)CO)C2=O (stereo not drawn) [CBK265529] | 88.3 | –
29 | CCCC12CN3CC(CCC)(CN(C1)C3c1ccc(O)c(OC)c1)C2=O (stereo not drawn) [CBK265531] | 89 | –
30 | COc1cc(/N=C(\N)Nc2nc(=O)cc(CSc3ccc(C)cc3)[nH]2)cc(OC)c1 [CBK265532] | 83.4 | –
31 | CC1(CC(=O)Nc2ccccc2)NC(=S)N(c2ccccc2)N1 (stereo not drawn) [CBK265534] | 105 | –
32 | CCOC(=O)c1c(NC(=O)CN2CCN(c3ccc(F)cc3)CC2)sc2c1CCCC2 [CBK265536] | 88.3 | –
33 | O=C1N(CN2CCN(C(c3ccccc3)c3ccccc3)CC2)c2ccccc2C12OCCCO2 [CBK265538] | 85.6 | –
34 | O=c1ccc(O)nn1CN1CCN(Cc2ccccc2)CC1 [CBK265539] | 91.5 | –
35 | COc1cccc(C(=O)Oc2ccc3c(=O)c(-c4nc5ccccc5s4)c(C)oc3c2)c1 [CBK265540] | 103 | –
36 | CCOc1cccc(N2C(=O)NC(=O)/C(=C/NCCc3c[nH]c4ccccc34)C2=O)c1 [CBK265541] | – | 106
37 | NC(=O)c1c(NC(=S)NC(=O)c2ccccc2Br)sc2c1CCC2 [CBK265543] | 89.3 | –
38 | FC(F)(F)C1(NC2(C(Cl)(Cl)Cl)Oc3ccccc3O2)Oc2ccccc2O1 [CBK265544] | 90.5 | –
39 | COc1ccc(/C=C2/SC(=O)N(CCNC3=NS(=O)(=O)c4ccccc43)C2=O)cc1 [CBK265545] | 83.4 | –
40 | CCC12CN3CC(CC)(CN(C1)C3c1c(C)[nH]c3ccccc13)C2=O (stereo not drawn) [CBK265547] | 89.4 | –

Row | Compound | viability at 28.5 h, 10 µM [%] | viability at 28.5 h, 10 µM (bulk resorufin, single well) [%]
41 | COc1ccc(S(=O)(=O)N2CCOCC2)cc1C(=O)Nc1ccc2c(c1)OCO2 [CBK265548] | 102 | –
42 | O=C1N/C(=N/c2cccc(O)c2)S/C1=C1\C(=O)Nc2ccccc21 [CBK265549] | 99.6 | –
43 | O=C(NC(Cc1ccccc1)N1C(=O)c2ccccc2C1=O)N1CCCc2ccccc21 (stereo not drawn) [CBK265551] | 111 | –
44 | O=C(O)C1CC(=O)N(CCc2ccccc2)/C(=N/CCc2ccccc2)S1 (stereo not drawn) [CBK265558] | 89.2 | –
45 | Cc1nnc(SCc2ccc(CSc3nnc(C)n3N)cc2)n1N [CBK265561] | 106 | –
46 | Cc1ccc(NC(=O)COC(=O)CCc2c[nH]c(O)n2)cc1 [CBK265562] | 89.9 | –
47 | Cc1ccc(NC(=O)CCSc2nnc3ccccn23)cc1 [CBK265563] | 93.7 | –
48 | COc1ccc(CCN2C(=O)/C(=C\c3c(NCCO)nc4c(C)cccn4c3=O)SC2=S)cc1 [CBK265566] | 79.9 | –
49 | Cc1cccc(-n2ncc3c2ncn2c(COc4ccccc4C)nnc32)c1 [CBK265567] | 86.2 | –
50 | CC(C)(C)NS(=O)(=O)c1cccc2nonc12 [CBK265569] | 115 | –
51 | O=C(O)CN1C(=O)/C(=C2/C(=O)N(Cc3ccccc3Cl)c3ccccc32)SC1=S [CBK265570] | 95.6 | –
52 | CC1CCN(S(=O)(=O)c2ccc(NC(=O)CCN3C(=O)c4ccccc4C3=O)cc2)CC1 [CBK265572] | 98.8 | –
53 | O=C1NC(=S)N(Cc2ccco2)C(=O)/C1=C\c1cn(CCOc2ccc(F)cc2)c2ccccc12 [CBK265573] | – | 80.9
54 | CCOC(=O)c1sc(NCCOc2cccc(C)c2)nc1C [CBK265574] | 85.2 | –
55 | CCOC(=O)CNC(=O)C1Cc2ccccc2CN1S(=O)(=O)c1cccs1 (stereo not drawn) [CBK265575] | 103 | –
56 | O=C(CN1C(=O)c2ccc([N+](=O)[O-])cc2C1=O)Nc1cccc2c1C(=O)N(c1ccccc1)C2=O [CBK265576] | 84.7 | –
57 | CCOc1ccc(-n2c(N)c(C(=O)NCc3ccco3)sc2=S)cc1 [CBK265578] | 96.3 | –
58 | CC(Sc1ccccn1)C(=O)Nc1ccc(S(N)(=O)=O)cc1 (stereo not drawn) [CBK265579] | 97.1 | –
59 | C/N=C1/SC(CC(=O)Nc2cccc(C(=O)O)c2)C(=O)N1C (stereo not drawn) [CBK265581] | 99.8 | –
60 | O=C(O)c1cccnc1SC1CC(=O)N(c2ccc(F)cc2)C1=O (stereo not drawn) [CBK265582] | 110 | –

Reference: PMC12040169 (PLOS Biology, 2025)
